Experiment: Urinary excretion study in rats after oral NS, SF or CNS (LC–MS/MS)
Assay type: in vivo
Settings: for concentration at 2 h / concentration at 4 h / concentration at 8 h / concentration at 12 h / concentration at 24 h / concentration at 36 h / concentration at 48 h / concentration at 72 h / concentration at 96 h / concentration at 120 h / concentration at 6 h: male, Sprague Dawley, rat, urine, oral; for Accumulative excretion amount / Accumulative excretion percentage / Excretion amount: rat urine
Experimental: The animal room was set at constant temperature of 20 ± 2 °C with humidity of 50 ± 20% and 12/12 h light/dark cycle.
Eighteen male rats were fasted for 12 h before starting the experiment. The rats were divided into three groups at random (n = 6) and received NS (60 mg/kg), SF (50 mg/kg), and NS (60 mg/kg) + SF (50 mg/kg), respectively, by oral gavage. The rats were placed in separate metabolic cages. The urine samples were collected at 0–2, 2–4, 4–6, 6–8, 8–12, 12–24, 24–36, 36–48, 48–72, 72–96, and 96–120 h. The feces samples were collected at 0–4, 4–8, 8–12, 12–24, 24–36, 36–48, 48–72, 72–96, and 96–120 h. The urine volume was recorded and the dry feces were measured for each collection period. Samples were stored at −80 °C until analysis.
An aliquot of 200 μL urine sample was mixed with 10 μL of IS and evaporated to dryness with a ZLS-2 vacuum centrifugal concentrator (Herexi Co., Ltd., Changsha, Hunan, China). The residue was reconstituted in 100 μL of 50% methanol vortexed for 2 min and centrifuged at 12,000 rpm for 15 min. Finally, a 1 μL aliquot was injected for LC–MS analysis.
Ultra fast liquid chromatography (UFLC) analysis was performed using a Shimadzu UFLC system (DGU-20A3R Degasser; LC-20AD pump; SIL-20AXR Autosampler; CTO-20AC Column Oven) (Nakagyo-Ku, Koyoto, Japan). […] Because of the different endogenous substances in the urine and feces samples, different elution gradients were used to alleviate the matrix effects for the analytes.
The mass spectrometric detection was performed on an ABSciex 4500 Qtrap mass spectrometer (ABSciex, Foster City, CA, USA) equipped with a negative electrospray ionization (ESI) interface using multiple reaction monitoring (MRM). The MS parameters were optimized under the selected ion monitoring conditions as follows: curtain gas, 35 psi; ionspray voltage, 4500 V; turbo gas temperature, 450 °C; GS1, 45 psi; GS2, 45 psi. All data were acquired and analyzed by Analyst software (Versions 1.6.2) from ABSciex.
The accumulative excretion percentage was calculated for each analyte as follows. Excretion at time (t) = [concentration of the analyte (ng/mL) at t] × total urine (or feces) volume (mL) at t. The cumulative excretion up to time t (mg) was expressed as a percent (%) cumulative excretion by dividing by the total amount of the analyte ingested (mg): % Cumulative Excretion = 100 × (Σt excretiont) total ingested.

concentration at 2 h (60 mg/kg, oral NS 60 mg/kg, 2 h): 17 ± 39 ng/mL
concentration at 4 h (60 mg/kg, oral NS 60 mg/kg, 4 h): 33 ± 69 ng/mL
concentration at 8 h (60 mg/kg, oral NS 60 mg/kg, 8 h): 9 ± 12 ng/mL
concentration at 12 h (60 mg/kg, oral NS 60 mg/kg, 12 h): 28 ± 19 ng/mL
concentration at 24 h (60 mg/kg, oral NS 60 mg/kg, 24 h): 34 ± 63 ng/mL
concentration at 36 h (60 mg/kg, oral NS 60 mg/kg, 36 h): 17 ± 33 ng/mL
concentration at 48 h (60 mg/kg, oral NS 60 mg/kg, 48 h): 12 ± 19 ng/mL
concentration at 72 h (60 mg/kg, oral NS 60 mg/kg, 72 h): 12 ± 23 ng/mL
concentration at 96 h (60 mg/kg, oral NS 60 mg/kg, 96 h): 6 ± 10 ng/mL
concentration at 120 h (60 mg/kg, oral NS 60 mg/kg, 120 h): 3 ± 6 ng/mL
concentration at 2 h (oral CNS 110 mg/kg, 2 h): 22 ± 42 ng/mL
concentration at 4 h (oral CNS 110 mg/kg, 4 h): 9 ± 15 ng/mL
concentration at 6 h (oral CNS 110 mg/kg, 6 h): 17 ± 16 ng/mL
concentration at 8 h (oral CNS 110 mg/kg, 8 h): 38 ± 75 ng/mL
concentration at 12 h (oral CNS 110 mg/kg, 12 h): 53 ± 110 ng/mL
concentration at 24 h (oral CNS 110 mg/kg, 24 h): 315 ± 787 ng/mL
concentration at 36 h (oral CNS 110 mg/kg, 36 h): 41 ± 68 ng/mL
concentration at 48 h (oral CNS 110 mg/kg, 48 h): 30 ± 70 ng/mL
concentration at 72 h (oral CNS 110 mg/kg, 72 h): 16 ± 35 ng/mL
concentration at 96 h (oral CNS 110 mg/kg, 96 h): 16 ± 36 ng/mL
concentration at 120 h (oral CNS 110 mg/kg, 120 h): 10 ± 17 ng/mL
concentration at 6 h (oral NS 60 mg/kg, 6 h): 10 ± 18 ng/mL
Accumulative excretion amount (oral CNS 110 mg/kg, 2 h): 0.005 ± 0.005 µg
Accumulative excretion percentage (oral CNS 110 mg/kg, 2 h): 0.001±0.001%
Excretion amount (oral CNS 110 mg/kg, 2 h): 0.005 ± 0.005 µg
Accumulative excretion amount (oral CNS 110 mg/kg, 4 h): 0.009 ± 0.008 µg
Accumulative excretion percentage (oral CNS 110 mg/kg, 4 h): 0.001±0.001%
Excretion amount (oral CNS 110 mg/kg, 4 h): 0.005 ± 0.007 µg
Accumulative excretion amount (oral CNS 110 mg/kg, 6 h): 0.024 ± 0.023 µg
Accumulative excretion percentage (oral CNS 110 mg/kg, 6 h): 0.003±0.003%
Excretion amount (oral CNS 110 mg/kg, 6 h): 0.018 ± 0.018 µg
Accumulative excretion amount (oral CNS 110 mg/kg, 8 h): 0.029 ± 0.024 µg
Accumulative excretion percentage (oral CNS 110 mg/kg, 8 h): 0.004±0.003%
Excretion amount (oral CNS 110 mg/kg, 8 h): 0.010 ± 0.009 µg
Accumulative excretion amount (oral CNS 110 mg/kg, 12 h): 0.045 ± 0.040 µg
Accumulative excretion percentage (oral CNS 110 mg/kg, 12 h): 0.006±0.005%
Excretion amount (oral CNS 110 mg/kg, 12 h): 0.019 ± 0.016 µg
Accumulative excretion amount (oral CNS 110 mg/kg, 24 h): 0.103 ± 0.083 µg
Accumulative excretion percentage (oral CNS 110 mg/kg, 24 h): 0.014±0.011%
Excretion amount (oral CNS 110 mg/kg, 24 h): 0.058 ± 0.066 µg
Accumulative excretion amount (oral CNS 110 mg/kg, 36 h): 0.114 ± 0.086 µg
Accumulative excretion percentage (oral CNS 110 mg/kg, 36 h): 0.015±0.011%
Excretion amount (oral CNS 110 mg/kg, 36 h): 0.011 ± 0.009 µg
Accumulative excretion amount (oral CNS 110 mg/kg, 48 h): 0.135 ± 0.096 µg
Accumulative excretion percentage (oral CNS 110 mg/kg, 48 h): 0.018±0.013%
Excretion amount (oral CNS 110 mg/kg, 48 h): 0.021 ± 0.024 µg
Accumulative excretion amount (oral CNS 110 mg/kg, 72 h): 0.139 ± 0.098 µg
Accumulative excretion percentage (oral CNS 110 mg/kg, 72 h): 0.018±0.013%
Excretion amount (oral CNS 110 mg/kg, 72 h): 0.004 ± 0.004 µg
Accumulative excretion amount (oral CNS 110 mg/kg, 96 h): 0.144 ± 0.100 µg
Accumulative excretion percentage (oral CNS 110 mg/kg, 96 h): 0.019±0.013%
Excretion amount (oral CNS 110 mg/kg, 96 h): 0.005 ± 0.005 µg
Accumulative excretion amount (oral CNS 110 mg/kg, 120 h): 0.148 ± 0.101 µg
Accumulative excretion percentage (oral CNS 110 mg/kg, 120 h): 0.019±0.013%
Excretion amount (oral CNS 110 mg/kg, 120 h): 0.004 ± 0.004 µg
Accumulative excretion amount (oral NS 60 mg/kg, 2 h): 0.022 ± 0.025 µg
Accumulative excretion percentage (oral NS 60 mg/kg, 2 h): 0.002±0.003%
Excretion amount (oral NS 60 mg/kg, 2 h): 0.022 ± 0.025 µg
Accumulative excretion amount (oral NS 60 mg/kg, 4 h): 0.027 ± 0.029 µg
Accumulative excretion percentage (oral NS 60 mg/kg, 4 h): 0.003±0.003%
Excretion amount (oral NS 60 mg/kg, 4 h): 0.008 ± 0.003 µg
Accumulative excretion amount (oral NS 60 mg/kg, 6 h): 0.048 ± 0.039 µg
Accumulative excretion percentage (oral NS 60 mg/kg, 6 h): 0.006±0.004%
Excretion amount (oral NS 60 mg/kg, 6 h): 0.021 ± 0.020 µg
Accumulative excretion amount (oral NS 60 mg/kg, 8 h): 0.097 ± 0.129 µg
Accumulative excretion percentage (oral NS 60 mg/kg, 8 h): 0.011±0.015%
Excretion amount (oral NS 60 mg/kg, 8 h): 0.082 ± 0.123 µg
Accumulative excretion amount (oral NS 60 mg/kg, 12 h): 0.173 ± 0.206 µg
Accumulative excretion percentage (oral NS 60 mg/kg, 12 h): 0.020±0.024%
Excretion amount (oral NS 60 mg/kg, 12 h): 0.076 ± 0.083 µg
Accumulative excretion amount (oral NS 60 mg/kg, 24 h): 0.279 ± 0.198 µg
Accumulative excretion percentage (oral NS 60 mg/kg, 24 h): 0.032±0.023%
Excretion amount (oral NS 60 mg/kg, 24 h): 0.106 ± 0.109 µg
Accumulative excretion amount (oral NS 60 mg/kg, 36 h): 0.311 ± 0.182 µg
Accumulative excretion percentage (oral NS 60 mg/kg, 36 h): 0.036±0.021%
Excretion amount (oral NS 60 mg/kg, 36 h): 0.041 ± 0.012 µg
Accumulative excretion amount (oral NS 60 mg/kg, 48 h): 0.359 ± 0.187 µg
Accumulative excretion percentage (oral NS 60 mg/kg, 48 h): 0.041±0.021%
Excretion amount (oral NS 60 mg/kg, 48 h): 0.048 ± 0.045 µg
Accumulative excretion amount (oral NS 60 mg/kg, 72 h): 0.372 ± 0.200 µg
Accumulative excretion percentage (oral NS 60 mg/kg, 72 h): 0.043±0.023%
Excretion amount (oral NS 60 mg/kg, 72 h): 0.013 ± 0.018 µg
Accumulative excretion amount (oral NS 60 mg/kg, 96 h): 0.379 ± 0.211 µg
Accumulative excretion percentage (oral NS 60 mg/kg, 96 h): 0.044±0.024%
Excretion amount (oral NS 60 mg/kg, 96 h): 0.008 ± 0.013 µg
Accumulative excretion amount (oral NS 60 mg/kg, 120 h): 0.386 ± 0.221 µg
Accumulative excretion percentage (oral NS 60 mg/kg, 120 h): 0.044±0.025%
Excretion amount (oral NS 60 mg/kg, 120 h): 0.007 ± 0.012 µg
Compound: CC(C)=CCC[C@](C)(O[C@@H]1O[C@H](CO)[C@@H](O)[C@H](O)[C@H]1O)[C@H]1CC[C@]2(C)[C@@H]1[C@H](O)C[C@@H]1[C@@]3(C)CC[C@H](O[C@@H]4O[C@H](CO)[C@@H](O)[C@H](O)[C@H]4O[C@@H]4O[C@H](CO)[C@@H](O)[C@H](O)[C@H]4O)C(C)(C)[C@@H]3CC[C@]12C [ginsenoside Rd]

Reference: publication PMC6321168, “Comparative Study on Excretive Characterization of Main Components in Herb Pair Notoginseng-Safflower and Single Herbs by LC–MS/MS” (Pharmaceutics, 2018)
